Values quoted from earlier work in patent US8278040B2, “Optically responsive and mechanically tunable colloid-in-liquid crystal gels” (priority 2008, dated 2012).

Tested on: live cells

For `CCCCCc1ccc(-c2ccc(C#N)cc2)cc1` [5CB, 4-cyano-4′-pentylbiphenyl], the “toxicity to living cells (stated)” value (general statement, criteria of Luk et al.) is given as “cytotoxic” and the “cell death on direct contact with live cells” value (placed into direct contact with live cells) is given as “cause cell death within a short time period”.
